Common to all, as to type: biochemical
For one test, the target named is T1, UGT2B7 (Homo sapiens, UniProt P16662).
T1 construct: Supersome recombinant human enzyme (Corning), microsomal preparation
T1 sequence (P16662 24-529): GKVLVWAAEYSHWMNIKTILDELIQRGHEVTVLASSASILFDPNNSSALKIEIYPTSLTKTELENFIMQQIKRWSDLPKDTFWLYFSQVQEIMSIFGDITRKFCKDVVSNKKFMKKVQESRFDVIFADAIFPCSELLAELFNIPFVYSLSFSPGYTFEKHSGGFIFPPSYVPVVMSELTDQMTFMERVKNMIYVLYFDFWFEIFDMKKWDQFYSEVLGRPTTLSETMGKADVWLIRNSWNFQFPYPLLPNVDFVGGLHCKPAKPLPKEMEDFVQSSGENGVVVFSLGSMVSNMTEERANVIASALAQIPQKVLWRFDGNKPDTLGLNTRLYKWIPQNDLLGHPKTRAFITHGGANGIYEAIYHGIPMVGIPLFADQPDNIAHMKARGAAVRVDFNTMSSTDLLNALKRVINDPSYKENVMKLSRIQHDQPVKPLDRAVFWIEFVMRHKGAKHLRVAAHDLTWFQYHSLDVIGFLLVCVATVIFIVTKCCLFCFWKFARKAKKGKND
In words: 4MU glucuronidation, HPLC of 4MUG. The text has this: 4MU glucuronidation, HPLC of 4MUG on UGT2B7

In test [1] the target is T2, UGT1A9 (Homo sapiens, UniProt O60656).
T2 construct: Supersome recombinant human enzyme (Corning), microsomal preparation
T2 sequence (O60656 26-530): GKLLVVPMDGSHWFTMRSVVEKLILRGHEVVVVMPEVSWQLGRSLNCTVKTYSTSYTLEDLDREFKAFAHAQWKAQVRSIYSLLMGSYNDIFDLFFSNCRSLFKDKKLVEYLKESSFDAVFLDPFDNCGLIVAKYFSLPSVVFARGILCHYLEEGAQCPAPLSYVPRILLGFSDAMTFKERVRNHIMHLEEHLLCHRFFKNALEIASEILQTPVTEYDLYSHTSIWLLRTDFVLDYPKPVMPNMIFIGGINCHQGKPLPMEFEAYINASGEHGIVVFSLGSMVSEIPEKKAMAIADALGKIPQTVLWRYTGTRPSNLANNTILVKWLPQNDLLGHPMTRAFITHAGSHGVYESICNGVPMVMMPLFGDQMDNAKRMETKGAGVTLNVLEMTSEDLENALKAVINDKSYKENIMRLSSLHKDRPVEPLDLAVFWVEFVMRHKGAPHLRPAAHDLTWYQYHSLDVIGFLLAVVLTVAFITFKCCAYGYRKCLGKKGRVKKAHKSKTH
Nature of the test: 4MU glucuronidation, HPLC of 4MUG, Dixon plot. The text has this: 4MU glucuronidation, HPLC of 4MUG, Dixon plot on UGT1A9

The target of the next test is T3, UGT2B15 (Homo sapiens, UniProt P54855).
T3 construct: Supersome recombinant human enzyme (Corning), microsomal preparation
T3 sequence (P54855 24-530): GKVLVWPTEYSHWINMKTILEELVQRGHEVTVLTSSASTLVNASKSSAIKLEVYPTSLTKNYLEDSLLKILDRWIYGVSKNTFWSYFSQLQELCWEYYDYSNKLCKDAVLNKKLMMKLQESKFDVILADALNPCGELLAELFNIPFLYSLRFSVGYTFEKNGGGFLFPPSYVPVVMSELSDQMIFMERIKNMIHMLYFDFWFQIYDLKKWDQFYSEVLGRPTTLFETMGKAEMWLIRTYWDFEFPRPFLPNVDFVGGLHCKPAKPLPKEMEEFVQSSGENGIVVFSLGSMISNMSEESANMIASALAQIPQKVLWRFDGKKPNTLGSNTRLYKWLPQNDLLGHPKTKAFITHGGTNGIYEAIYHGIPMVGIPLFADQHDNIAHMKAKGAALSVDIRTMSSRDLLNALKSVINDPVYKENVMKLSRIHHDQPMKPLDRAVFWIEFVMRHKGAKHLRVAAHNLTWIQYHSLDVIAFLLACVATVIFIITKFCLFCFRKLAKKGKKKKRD
Nature of the test: 4MU glucuronidation, HPLC of 4MUG. From the text:
4MU glucuronidation, HPLC of 4MUG on UGT2B15

In test [2] the target is T4, UGT1A3 (Homo sapiens, UniProt P35503).
T4 construct: Supersome recombinant human enzyme (Corning), microsomal preparation
T4 sequence (P35503 29-534): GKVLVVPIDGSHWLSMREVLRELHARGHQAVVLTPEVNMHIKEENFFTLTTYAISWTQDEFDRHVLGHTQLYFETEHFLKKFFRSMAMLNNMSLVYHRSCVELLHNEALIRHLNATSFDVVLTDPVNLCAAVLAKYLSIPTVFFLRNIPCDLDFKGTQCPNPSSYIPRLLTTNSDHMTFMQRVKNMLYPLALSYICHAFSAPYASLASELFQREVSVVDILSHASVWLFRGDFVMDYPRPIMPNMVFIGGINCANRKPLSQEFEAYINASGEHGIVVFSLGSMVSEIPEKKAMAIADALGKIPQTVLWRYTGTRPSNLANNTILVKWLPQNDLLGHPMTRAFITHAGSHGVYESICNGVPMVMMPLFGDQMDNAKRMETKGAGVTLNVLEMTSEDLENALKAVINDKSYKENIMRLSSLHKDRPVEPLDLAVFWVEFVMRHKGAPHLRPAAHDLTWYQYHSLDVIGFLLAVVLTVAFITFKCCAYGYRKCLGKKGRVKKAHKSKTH
In words: 4MU glucuronidation, HPLC of 4MUG. The text has this: 4MU glucuronidation, HPLC of 4MUG on UGT1A3

The target in test [3] is T4, UGT1A3. In words: 4MU glucuronidation, HPLC of 4MUG, Dixon plot. From the text:
4MU glucuronidation, HPLC of 4MUG, Dixon plot on UGT1A3

In the next test the target is T5, UGT1A6 (Homo sapiens, UniProt P19224).
T5 construct: Supersome recombinant human enzyme (Corning), microsomal preparation
T5 sequence (P19224 27-532): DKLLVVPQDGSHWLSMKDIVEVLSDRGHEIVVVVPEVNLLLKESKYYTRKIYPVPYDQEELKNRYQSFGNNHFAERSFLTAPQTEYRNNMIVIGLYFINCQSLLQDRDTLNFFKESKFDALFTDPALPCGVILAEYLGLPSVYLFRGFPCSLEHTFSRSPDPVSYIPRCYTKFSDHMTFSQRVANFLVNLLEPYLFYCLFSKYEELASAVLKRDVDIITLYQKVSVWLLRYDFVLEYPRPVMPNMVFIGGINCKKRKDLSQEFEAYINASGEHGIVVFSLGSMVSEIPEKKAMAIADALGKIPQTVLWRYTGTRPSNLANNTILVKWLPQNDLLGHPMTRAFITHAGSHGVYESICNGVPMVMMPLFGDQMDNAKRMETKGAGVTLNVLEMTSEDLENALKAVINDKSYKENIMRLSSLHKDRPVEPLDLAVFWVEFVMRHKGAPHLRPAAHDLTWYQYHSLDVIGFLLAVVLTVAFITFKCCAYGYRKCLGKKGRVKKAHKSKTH
In words: 4MU glucuronidation, HPLC of 4MUG. From the text:
4MU glucuronidation, HPLC of 4MUG on UGT1A6

Test [4] addresses T2, UGT1A9. Nature of the test: 4MU glucuronidation, HPLC of 4MUG. From the text: 4MU glucuronidation, HPLC of 4MUG on UGT1A9
The next test deals with T6, UGT1A1 (Homo sapiens, UniProt P22309).
T6 construct: Supersome recombinant human enzyme (Corning), microsomal preparation
T6 sequence (P22309 26-533): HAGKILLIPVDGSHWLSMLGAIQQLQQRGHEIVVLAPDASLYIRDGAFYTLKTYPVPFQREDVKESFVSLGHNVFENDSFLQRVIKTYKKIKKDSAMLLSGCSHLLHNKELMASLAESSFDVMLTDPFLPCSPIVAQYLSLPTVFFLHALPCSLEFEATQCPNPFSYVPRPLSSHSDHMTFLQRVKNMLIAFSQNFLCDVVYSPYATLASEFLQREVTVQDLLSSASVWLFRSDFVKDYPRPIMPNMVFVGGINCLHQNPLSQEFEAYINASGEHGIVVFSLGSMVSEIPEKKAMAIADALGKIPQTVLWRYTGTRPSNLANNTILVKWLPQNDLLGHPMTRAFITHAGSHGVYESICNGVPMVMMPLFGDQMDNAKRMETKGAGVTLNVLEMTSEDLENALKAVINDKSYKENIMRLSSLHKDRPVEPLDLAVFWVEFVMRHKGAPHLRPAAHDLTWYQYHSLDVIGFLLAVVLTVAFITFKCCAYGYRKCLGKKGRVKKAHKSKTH
Nature of the test: 4MU glucuronidation, HPLC of 4MUG. The text has this:
4MU glucuronidation, HPLC of 4MUG on UGT1A1

The IC50 is the point on the concentration scale where inhibition reaches its midpoint. Read a high IC50 as weaker potency in that assay. What is called Ki is a dissociation constant, usually derived from enzyme kinetics or from competition with a known ligand.

Bounds are passed on as bounds.

`CC[C@@H]1CN2CCc3c([nH]c4cccc(OC)c34)[C@@H]2C[C@@H]1/C(=C\OC)C(=O)OC` [mitragynine]: the concentration for half-maximal inhibition (IC50) on UGT2B7 is above 200 µM; on UGT2B15, 152 ± 24 µM; on UGT1A3 [2] it was 72 ± 0.16 µM; against UGT1A6, 121 ± 44 µM; against UGT1A9 [4], 131 ± 11 µM; on UGT1A1 it was above 200 µM. Moreover, the inhibition constant (Ki) at UGT1A9 [1] was found to be 114 ± 13 µM; at UGT1A3 [3], 45 ± 1.3 µM.
